According to publication PMC2832585 (Bioorganic & medicinal chemistry, 2009):
Where two headings read alike, the source gives them in different places.

Experiments:
human β2-AR = human β2-AR (Homo sapiens, UniProt P07550); assay: β2-AR binding, [3H]CGP-12177 displacement on HEK cell membranes; settings: relative to (R,R)-1 or (R,S)-1
β1-AR = β1-AR (Rattus norvegicus, UniProt P18090); assay: β1-AR binding, [3H]CGP-12177 displacement on rat cortical membranes
[1] = test system: single ventricular myocytes; assay: Cardiomyocyte contractility model; assay type: cell-based, rat
[2] = test system: single ventricular myocytes; settings: read-out: EC50(cardio); previous data; ref [10]; cited from earlier work

Chain of β1-AR (P18090 whole entry): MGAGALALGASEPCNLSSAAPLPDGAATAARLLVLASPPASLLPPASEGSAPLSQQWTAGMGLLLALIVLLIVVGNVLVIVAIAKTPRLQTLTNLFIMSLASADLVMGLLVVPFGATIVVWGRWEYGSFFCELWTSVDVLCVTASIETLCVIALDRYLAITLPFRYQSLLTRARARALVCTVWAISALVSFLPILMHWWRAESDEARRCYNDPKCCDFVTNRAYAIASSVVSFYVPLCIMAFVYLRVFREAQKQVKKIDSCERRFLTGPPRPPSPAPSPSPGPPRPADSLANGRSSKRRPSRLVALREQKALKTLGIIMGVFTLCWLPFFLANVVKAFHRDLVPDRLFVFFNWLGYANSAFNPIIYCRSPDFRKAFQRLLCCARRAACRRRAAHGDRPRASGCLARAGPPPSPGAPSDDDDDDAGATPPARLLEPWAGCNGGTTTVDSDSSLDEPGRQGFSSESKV
Chain of human β2-AR (P07550 whole entry): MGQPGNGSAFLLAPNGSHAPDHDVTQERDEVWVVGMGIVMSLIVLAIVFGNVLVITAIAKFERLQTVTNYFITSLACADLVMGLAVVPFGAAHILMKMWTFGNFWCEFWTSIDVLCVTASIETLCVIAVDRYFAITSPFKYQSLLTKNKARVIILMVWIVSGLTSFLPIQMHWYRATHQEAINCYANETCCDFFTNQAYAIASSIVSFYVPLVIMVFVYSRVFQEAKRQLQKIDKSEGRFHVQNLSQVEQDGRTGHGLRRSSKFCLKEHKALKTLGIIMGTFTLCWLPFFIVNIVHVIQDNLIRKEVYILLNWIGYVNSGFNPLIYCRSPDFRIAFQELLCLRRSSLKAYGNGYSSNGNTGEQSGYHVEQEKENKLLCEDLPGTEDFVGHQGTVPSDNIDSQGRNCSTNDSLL

With `CC[C@H](Cc1ccc(O)cc1)NC[C@H](O)c1cc(O)cc(O)c1` [(R,R)-52, (R,R-(−)-5-(1-Hydroxy-2-(1-hydroxyphenyl)butan-2-ylamino)ethyl) benzene-1,3-diol] the “Ki(β2-AR) fold greater than corresponding isomer of 1” value (human β2-AR) was ~ 4 fold, the “Ki(β1-AR) of (R,R)-isomer fold larger than (R,S)-isomer” value (β1-AR) was 4 fold and the “Ki(β1-AR) fold higher than corresponding isomer of 1” value (β1-AR; relative to (R,R)-1 or (R,S)-1) was 28 fold. The “antagonism of the activity of zinterol” value ([1]; cardiomyocyte contractility model, data not shown) was “did not antagonize” and the “sensitivity of cardiomyocyte contractility activity to pertussis toxin” value ([1]; initial data, data not shown, indicates activation of both GS and Gi proteins) was “sensitive to pertussis toxin”.

With `CC[C@@H](Cc1ccc(O)cc1)NC[C@H](O)c1cc(O)cc(O)c1` (racemic) [(R,S)-52] the “Ki(β2-AR) fold greater than corresponding isomer of 1” value (human β2-AR) was 1.5 fold.

For `COc1ccc(C[C@@H](C)NC[C@@H](O)c2cc(O)cc(O)c2)cc1` [(S,R)-2], the EC50 [2] is given as 3160 nM.

For `C[C@H](Cc1ccc(O)cc1)NC[C@@H](O)c1cc(O)cc(O)c1` [(S,R)-1], the EC50 [2] is listed as 2340 nM.

In the case of `C[C@H](Cc1ccc(O)cc1)NC[C@H](O)c1cc(O)cc(O)c1` [(R,R)-1, (R,R)-fenoterol], the EC50 ([1]; read-out: EC50cardio, cardiomyocyte contractility) is reported as 73 ± 18 nM.
